In US7785828B1 (priority 2003, dated 2010):
Where two headings read alike, the source gives them in different places.

Experiments:
Assay type in all cases: cell-based
[1] = test system: Fusarium graminearum
[2] = test system: Fusarium graminearum
[3] = test system: Septoria tritici
[4] = test system: Mycosphaerella fijiensis
[5] = Table 2B (Dm-AMP1 based libraries), improvement compared to reference defensin protein (Rs-AFP2 for Table 2B [sic])
[6] = Measurement taken at 72 hours after inoculation, fold improvement compared to DmAMP1
[7] = Measurement taken at 144 hours after inoculation, fold improvement compared to DmAMP1
[8] = Table 2C (mixed diversity library), improvement compared to reference defensin protein DmAMP

Sequence	Activity (1): antifungal activity of the NP against Fusarium graminearium [1, 5]	Antifungal activity, Fusarium graminearum (improvement compared to DmAMP1) [2, 6]	Antifungal activity, Septoria tritici (improvement compared to DmAMP1) [3, 7]	Antifungal activity, Mycosphaerella fijiensis (improvement compared to DmAMP1) [4, 7]	Activity (1): antifungal activity of the NP against Fusarium graminearium [1, 8]	Antifungal activity, Fusarium graminearum (improvement compared to DmAMP1) [2]	Antifungal activity, Septoria tritici (improvement compared to DmAMP1) [3]	Antifungal activity, Mycosphaerella fijiensis (improvement compared to DmAMP1) [4]
NLCERASKTWTGNCGNTKHCDNQCRNWEGAKHGACHKRSGKWKCFCYFNC (Defensin like) [L9-15]	+++ (+++ indicates a >10-fold improvement)	++ (++ indicating >5- to 10-fold improvement)	++ (++ indicating >5- to 10-fold improvement)	+ (+ indicating 1- to 5-fold improvement compared to DmAMP1)				
DGVKLCERPSQTWTGNCGNTKHCDKQCRNWEGAKHGACHVRNGKWKCFCYFNC (Defensin like) [L7-39]		+ (+ indicating 1- to 5-fold improvement compared to DmAMP1)	+ (+ indicating 1- to 5-fold improvement compared to DmAMP1)	+ (+ indicating 1- to 5-fold improvement compared to DmAMP1)	++ (++ indicates a >5- to 10-fold improvement)			
NLCERASKTWTGNCGNTKHCDNQCKSWEGAKHGACHVRNGKHKCFCYFNC (Defensin like) [L9-33]	++ (++ indicates a >5- to 10-fold improvement)	+++ (+++ indicating >10-fold improvement)	+++ (+++ indicating >10-fold improvement)	++ (++ indicating >5- to 10-fold improvement)				
NLCERASKTWTGNCGNTKHCDTQCKSWEGAKHGACHVRNGKHKCECYFNC (NLCERASKTWTGNCGNTKHCDTQCKSWEGAKHGACHVRNGKHKCFCYFNC; Defensin like) [L6-84]	+++ (+++ indicates a >10-fold improvement)	+++ (+++ indicating >10-fold improvement)	+ (+ indicating 1- to 5-fold improvement compared to DmAMP1)	+++ (+++ indicating >10-fold improvement)				
NLCERASKTWTGNCGNTKHCDTQCKSWESAKHGACHVRSGKHKCFCYFNC (Defensin like) [L3-64]	+ (+ indicates a 1- to 5-fold improvement in activity compared to a reference defensin protein)	+++ (+++ indicating >10-fold improvement)	++ (++ indicating >5- to 10-fold improvement)	+ (+ indicating 1- to 5-fold improvement compared to DmAMP1)				
DGVKLCERASKTWTGNCGNTKHCDKQCKNWEGAKHGACHVRNGKWKCFCYFNC (Defensin like) [L7-449]		+++ (+++ indicating >10-fold improvement)	++ (++ indicating >5- to 10-fold improvement)	+ (+ indicating 1- to 5-fold improvement compared to DmAMP1)	++ (++ indicates a >5- to 10-fold improvement)			
NLCERASKTWTGNCGNTKHCDNQCKNWEGAKHGACHVRNGKWKCFCYFNC [L6-21] (Defensin like)	+++ (+++ indicates a >10-fold improvement)	+++ (+++ indicating >10-fold improvement)	+++ (+++ indicating >10-fold improvement)	+ (+ indicating 1- to 5-fold improvement compared to DmAMP1)				
DGVKLCERPSQTWSGHCGNTKHCDKQCRNWEGAKHGACHVRNGKWKCFCYFNC (Defensin like) [L7-87]		+++ (+++ indicating >10-fold improvement)	++ (++ indicating >5- to 10-fold improvement)	+ (+ indicating 1- to 5-fold improvement compared to DmAMP1)	+++ (+++ indicates a >10-fold improvement)			
DGVKLCERASQTWTGHCGNTKHCDKQCKNWEGAKHGACHKRNGKWKCFCYFNC (Defensin like) [L7-432]		+++ (+++ indicating >10-fold improvement)	+ (+ indicating 1- to 5-fold improvement compared to DmAMP1)	+++ (+++ indicating >10-fold improvement)	+++ (+++ indicates a >10-fold improvement)			
NLCERASKTWTGNCGNTKHCDTQCKNWEGAKHGACHKRNGKWKCFCYFNC (Defensin like) [L3-42]	+++ (+++ indicates a >10-fold improvement)	+++ (+++ indicating >10-fold improvement)	++ (++ indicating >5- to 10-fold improvement)	+ (+ indicating 1- to 5-fold improvement compared to DmAMP1)				
DGVKLCEKPSQTWTGNCGNTKHCDTQCRNWEGAKHGACHKRNGKWKCFCYFNC (Defensin like) [L7-427]		++ (++ indicating >5- to 10-fold improvement)	+ (+ indicating 1- to 5-fold improvement compared to DmAMP1)	+ (+ indicating 1- to 5-fold improvement compared to DmAMP1)	++ (++ indicates a >5- to 10-fold improvement)			
NLCERASKTWTGNCGNTKHCDNQCRSWEGAKHGACHVRNGKHKCFCYFNC (Defensin like) [L6-75]	++ (++ indicates a >5- to 10-fold improvement)	+++ (+++ indicating >10-fold improvement)	+++ (+++ indicating >10-fold improvement)	+ (+ indicating 1- to 5-fold improvement compared to DmAMP1)				
DGVKLCEKPSKTWSGHCGNTKHCDTQCRNWEKAKHGACHVRNGKWKCFCYFNC (Defensin like) [L7-392]		+ (+ indicating 1- to 5-fold improvement compared to DmAMP1)	+ (+ indicating 1- to 5-fold improvement compared to DmAMP1)	+ (+ indicating 1- to 5-fold improvement compared to DmAMP1)	+++ (+++ indicates a >10-fold improvement)			
DGVKLCERASQTWTGHCGNTKHCDKQCRNWEGAKHGACHKRNGKWKCFCYFNC (Defensin like) [L7-179]		+ (+ indicating 1- to 5-fold improvement compared to DmAMP1)	+ (+ indicating 1- to 5-fold improvement compared to DmAMP1)	+ (+ indicating 1- to 5-fold improvement compared to DmAMP1)	+++ (+++ indicates a >10-fold improvement)			
DGVKLCERASQTWTGHCGNTKHCDNQCKNWEGAKHGACHKRSGKWKCFCYFNC (Defensin like) [L7-176]		+ (+ indicating 1- to 5-fold improvement compared to DmAMP1)	+ (+ indicating 1- to 5-fold improvement compared to DmAMP1)	+ (+ indicating 1- to 5-fold improvement compared to DmAMP1)	+++ (+++ indicates a >10-fold improvement)			
NLCEKASKTWSGNCGNTGHCDTQCKNWEGAKHGACHVRNGKHKCFCYFNC (Defensin like) [L5-12]						++ (key: + indicating 1- to 5-fold improvement compared to DmAMP1; ++ indicating >5- to 10-fold improvement; +++ indicating >10-fold improvement)	++ (key: + indicating 1- to 5-fold improvement compared to DmAMP1; ++ indicating >5- to 10-fold improvement; +++ indicating >10-fold improvement)	+ (key: + indicating 1- to 5-fold improvement compared to DmAMP1; ++ indicating >5- to 10-fold improvement; +++ indicating >10-fold improvement)
NLCEKASKTWTGNCGNTKHCDNQCRNWEGAKHGACHVRSGKHKCFCYFNC (Defensin like) [L9-22]						+++ (key: + indicating 1- to 5-fold improvement compared to DmAMP1; ++ indicating >5- to 10-fold improvement; +++ indicating >10-fold improvement)	+++ (key: + indicating 1- to 5-fold improvement compared to DmAMP1; ++ indicating >5- to 10-fold improvement; +++ indicating >10-fold improvement)	+ (key: + indicating 1- to 5-fold improvement compared to DmAMP1; ++ indicating >5- to 10-fold improvement; +++ indicating >10-fold improvement)
NLCERASKTWSGNCGNTKHCDNQCKNWEGAKHGACHVRNGKHKCFCYFNC [L6-60] (Defensin like)						+++ (key: + indicating 1- to 5-fold improvement compared to DmAMP1; ++ indicating >5- to 10-fold improvement; +++ indicating >10-fold improvement)	+++ (key: + indicating 1- to 5-fold improvement compared to DmAMP1; ++ indicating >5- to 10-fold improvement; +++ indicating >10-fold improvement)	+ (key: + indicating 1- to 5-fold improvement compared to DmAMP1; ++ indicating >5- to 10-fold improvement; +++ indicating >10-fold improvement)
